Measurements taken from ChEMBL document CHEMBL4376820, “Homodimeric Tobramycin Adjuvant Repurposes Novobiocin as an Effective Antibacterial Agent against Gram-Negative Bacteria” (J Med Chem, 2019).
In brackets after ≈: the same amount, converted by molar mass. Activity calls are given as the source filed them. The calls are words filed in the database; no cut-off is given here. Positions of bridges follow the written chain, without caps; N, C: chain ends. Non-standard residues stand in square brackets, D forms with d. Residues, ends and D or L forms follow the SMILES beside them. Dab = NCC[C@H](N)C(=O)O

What was measured:
Escherichia coli [1] = assay: Potentiation of novobiocin-induced antibacterial activity against colistin-resistant Escherichia coli 94393 clinical isolate harboring mcr-1 gene assessed as novobiocin MIC at <= 7.1 uM incubated for 18 hrs by CLSI protocol based assay (reference value: 128 ug/ml); type: functional; conditions: Escherichia coli, 94393, 18 h
Acinetobacter baumannii [2] = assay: Potentiation of novobiocin-induced antibacterial activity against novobiocin and colistin resistant Acinetobacter baumannii ATCC 17978 mutant generated from seven serial passages by checkerboard assay; type: functional, organism-based
Pseudomonas aeruginosa [3] = assay: Potentiation of novobiocin-induced antibacterial activity against wild type Pseudomonas aeruginosa PAO1 assessed as novobiocin MIC at <= 7.1 uM incubated for 18 hrs by CLSI protocol based assay (reference value: 512 ug/ml); type: functional; conditions: PAO1, 18 h
Klebsiella pneumoniae [4] = assay: Potentiation of novobiocin-induced antibacterial activity against colistin-resistant Klebsiella pneumoniae 113254 clinical isolate assessed as novobiocin MIC at <= 7.1 uM incubated for 18 hrs by CLSI protocol based assay (reference value: 256 ug/ml); type: functional; conditions: Klebsiella pneumoniae, 113254, 18 h
Pseudomonas aeruginosa [5] = assay: Induction of outer membrane permeabilization in Pseudomonas aeruginosa PAO1 assessed as increase in accumulation of NPN by measuring fluorescence intensity at 8 ug/ml measured immediately by NPN dye uptake assay; type: organism-based
Pseudomonas aeruginosa [6] = assay: Potentiation of novobiocin-induced antibacterial activity against carbapenem and colistin-resistant Pseudomonas aeruginosa 114228 clinical isolate assessed as novobiocin MIC at <= 7.1 uM incubated for 18 hrs by CLSI protocol based assay (reference value: 512 ug/ml); type: functional; conditions: Pseudomonas aeruginosa, 114228, 18 h
Pseudomonas aeruginosa [7] = assay: Potentiation of novobiocin-induced antibacterial activity against colistin and carbapenem-resistant Pseudomonas aeruginosa 101243 clinical isolate assessed as novobiocin MIC at <= 7.1 uM incubated for 18 hrs by CLSI protocol based assay (reference value: 128 ug/ml); type: functional; conditions: Pseudomonas aeruginosa, 101243, 18 h
Escherichia coli [8] = assay: Potentiation of novobiocin-induced antibacterial activity against colistin-resistant Escherichia coli 94474 clinical isolate harboring mcr-1 gene assessed as novobiocin MIC at <= 7.1 uM incubated for 18 hrs by CLSI protocol based assay (reference value: 256 ug/ml); type: functional; conditions: Escherichia coli, 94474, 18 h
[9] = Toxicity in Galleria mellonella larvae MDR Acinetobacter baumannii isolate assessed as larvae protection at 25 mg/kg in combination with novobiocin measured after 24 to 96 hrs relative to control; type: ADME, organism-based; conditions: in vivo
Enterobacter cloacae = assay: Potentiation of novobiocin-induced antibacterial activity against colistin-resistant Enterobacter cloacae 118568 clinical solate assessed as novobiocin MIC at <= 7.1 uM incubated for 18 hrs by CLSI protocol based assay (reference value: 1024 ug/ml); type: functional; conditions: Enterobacter cloacae, 118568, 18 h
Acinetobacter baumannii [10] = assay: Potentiation of novobiocin-induced antibacterial activity against colistin-resistant Acinetobacter baumannii 92247 clinical isolate assessed as novobiocin MIC at <= 7.1 uM incubated for 18 hrs by CLSI protocol based assay (reference value: 4 ug/ml); type: functional; conditions: Acinetobacter baumannii, 92247, 18 h
Pseudomonas aeruginosa [11] = assay: Potentiation of novobiocin-induced antibacterial activity against carbapenem and colistin-resistant Pseudomonas aeruginosa 91433 clinical isolate assessed as novobiocin MIC at <= 7.1 uM incubated for 18 hrs by CLSI protocol based assay (reference value: 16 ug/ml); type: functional; conditions: Pseudomonas aeruginosa, 91433, 18 h
Acinetobacter baumannii [12] = assay: Antibacterial activity against wild type Acinetobacter baumannii ATCC 17978 assessed as resistant development at sub-MIC measured after 5 days of passaging by microbroth dilution method relative to control; type: functional
Klebsiella pneumoniae [13] = assay: Bacteriostatic activity against Klebsiella pneumoniae 116381 at 50.4 uM in LB media after 24 hrs by time-kill assay; type: functional
Enterococcus faecium = assay: Antibacterial activity against Enterococcus faecium ATCC 27270; type: functional
Acinetobacter baumannii [14] = assay: Antibacterial activity against colistin-resistant Acinetobacter baumannii ATCC 17978 mutant generated from seven serial passages by checkerboard assay; type: functional
Acinetobacter baumannii [15] = assay: Bacteriostatic activity against Acinetobacter baumannii ATCC 17978 at 50.4 uM in LB media after 24 hrs by time-kill assay; type: functional, organism-based
Staphylococcus aureus = assay: Antibacterial activity against methicillin-resistant Staphylococcus aureus ATCC 33592; type: functional
Pseudomonas aeruginosa [16] = assay: Bacteriostatic activity against Pseudomonas aeruginosa PAO1 at 50.4 uM in LB media after 24 hrs by time-kill assay; type: functional, organism-based
Acinetobacter baumannii [17] = assay: Antibacterial activity against novobiocin-resistant Acinetobacter baumannii ATCC 17978 mutant generated from seven serial passages by checkerboard assay; type: functional
Acinetobacter baumannii [18] = assay: Antibacterial activity against novobiocin and test compound-resistant Acinetobacter baumannii ATCC 17978 mutant generated from seven serial passages in presence of novobiocin by checkerboard assay; type: functional
[19] = Toxicity in Galleria mellonella larvae MDR Acinetobacter baumannii isolate assessed as mortality at 100 mg/kg measured after 24 hrs relative to control; type: ADME, organism-based; conditions: in vivo, read-out: Activity
Acinetobacter baumannii [20] = assay: Antibacterial activity against wild type Acinetobacter baumannii ATCC 17978 by checkerboard assay; type: functional
[21] = tested on: Staphylococcus epidermidis; assay: Antibacterial activity against methicillin-resistant Staphylococcus epidermidis 61589; type: functional
Escherichia coli [22] = assay: Bactericidal activity against Escherichia coli ATCC […] at 50.4 uM in LB media after 24 hrs by time-kill assay; type: functional, organism-based
Acinetobacter baumannii [23] = assay: Antibacterial activity against wild type Acinetobacter baumannii ATCC 17978 assessed as resistant development at sub-MIC measured after 3 days of passaging by microbroth dilution method relative to control; type: functional

CC(C)C[C@@H]1NC(=O)[C@@H](Cc2ccccc2)NC(=O)[C@H](CCN)NC(=O)[C@@H](NC(=O)[C@H](CCN)NC(=O)[C@@H](N)[C@@H](C)O)CCNC(=O)[C@H]([C@@H](C)O)NC(=O)[C@H](CCN)NC(=O)[C@H](CCN)NC1=O [POLYMYXIN B NONAPEPTIDE] (H-T[Dab][Dab][Dab][dF]L[Dab][Dab]T; lactam 3-C)
MIC (Escherichia coli [1]): 4 µg/mL | Activity (Acinetobacter baumannii [2]): inactive | MIC (Pseudomonas aeruginosa [3]): 4 µg/mL | MIC (Klebsiella pneumoniae [4]): 64 µg/mL | Activity (Pseudomonas aeruginosa [5]): Active | MIC (Pseudomonas aeruginosa [6]): 128 µg/mL | MIC (Pseudomonas aeruginosa [7]): 8 µg/mL | MIC (Escherichia coli [8]): 32 µg/mL | Activity [9]: 35% | MIC (Enterobacter cloacae): 512 µg/mL | MIC (Acinetobacter baumannii [10]): 1 µg/mL | MIC (Pseudomonas aeruginosa [11]): 4 µg/mL

CO[C@@H]1[C@@H](OC(N)=O)[C@@H](O)[C@H](Oc2ccc3c(O)c(NC(=O)c4ccc(O)c(CC=C(C)C)c4)c(=O)oc3c2C)OC1(C)C [NOVOBIOCIN]
fold change (FC) (Acinetobacter baumannii [12]): 256 | Activity (Klebsiella pneumoniae [13]): -1.87 CFU/ml | MIC (Enterococcus faecium): 2 µg/mL (≈ 3.26 µM) | MIC (Acinetobacter baumannii [14]): < 0.031 µg/mL | Activity (Acinetobacter baumannii [15]): Active | MIC (Staphylococcus aureus): 0.125 µg/mL (≈ 0.204 µM) | Activity (Pseudomonas aeruginosa [16]): Active | MIC (Acinetobacter baumannii [17]): 2050 µg/mL | MIC (Acinetobacter baumannii [18]): 128 µg/mL | mortality at 24 h [19]: 100% | MIC (Acinetobacter baumannii [20]): 16 µg/mL | MIC [21]: 0.0625 µg/mL (≈ 0.102 µM) | Activity (Escherichia coli [22]): Active | fold change (FC) (Acinetobacter baumannii [23]): 64
